The source of these data is US20240238268A1, “TREATMENTS AND METHODS FOR TREATING ALZHEIMER'S DISEASE” (Board of Supervisors of Louisiana State University and …, priority 2021, published 2024).

Bounds are passed on as bounds.

The test system of one assay is ICAM-1. In words: ICAM-1 level, protein chip assay. To be noted: aged 3xTg-AD female mice; cortex and hippocampus; 30 mg/kg, 7 days, IP. The assay is classed as in vivo, mouse. How it is done: (§1) FIGS. 19A-19F are six graphs showing PRMT4 inhibitor (TP-064) reduced ICAM-1, VCAM-1 and enhanced E-Cadherin protein levels in aged female 3xTg-AD mice. In FIGS. 19A-19D, aged 3xTg-AD female mice v. […] Adhesion molecules were assessed via protein chip assay in the cortex and hippocampus. * p<0.05 evaluated by one-way ANOVA with Tukey's post-hoc analyses.

For a further assay, the system named is VCAM-1. The experiment in a line: VCAM-1 level, protein chip assay. It counts as in vivo, mouse. To be noted: aged 3xTg-AD female mice; cortex and hippocampus; 30 mg/kg, 7 days, IP. How it is done: as §1
Assay [1] has as its system phosphorylated tau (pTau). The experiment in a line: Phosphorylated tau level in brain, capillary-phoresis. The assay is classed as in vivo, mouse. To be noted: treated 3xTg mice; controls = 100%. The source says:
(§2) Capillary-phoresis immunoassay via ProteinSimple®: Quantification of all protein targets was achieved using Simple Western analysis in a Jess™ apparatus per the manufacturer's protocol (ProteinSimple, Bio-techne, Minneapolis, MN). Protein was extracted from dissected tissue in an extraction buffer consisting of T-PER® Tissue Protein Extraction Reagent (Cat. No. 78510, Thermo Fischer Scientific, Waltham, MA) and Halt™ Protease Inhibitor Cocktail (Cat. No. 87785, Thermo Fischer Scientific, Waltham, MA). Following homogenization and centrifugation (10,000×g, 5 min, 4° C.), protein concentration was determined in tissue protein supernatant samples using DC Protein Assay (Cat. No. 5000112, Bio-Rad Laboratories, Hercules, California) according to manufacturer instructions. […] Antibody diluent (ProteinSimple, Bio-techne, Minneapolis, MN) was used for all antibody dilutions as follows: PRMT4 (1:50, RRID: AB_2068436), PRMT6 (1:100, Cell Signaling Technology cat. 14641), eNOS (1:200, RRID: AB_10850618), nNOS (1:100, RRID: AB_2152488), iNOS (1:100, RRID: AB_10000625), DDAH2 (1:50, RRID: AB_2640442) Antibodies were detected using HRP-conjugated secondary anti-rabbit, and -mouse. Relative protein levels were calculated by measuring the area under the peak of a chemiluminescent chromatogram and normalized to total capillary chemiluminescence for a given sample. […]

Another assay concerns nNOS. The experiment in a line: nNOS protein level in brain, capillary-phoresis. To be noted: treated 3xTg-AD mice; control = 100%. It counts as in vivo, mouse.
Source text: as §2

The test system of the next assay is iNOS. The experiment in a line: iNOS protein level in brain, capillary-phoresis. To be noted: treated 3xTg-AD mice; control = 100%. The assay is classed as in vivo, mouse.
Source text: as §2

A further assay has as its system aged 3xTg-AD female mice. In words: BBB permeability: Evan's blue brain penetration. It counts as in vivo, mouse. To be noted: formamide extraction of whole brain. An excerpt:
FIG. 15 is a graph showing blood brain barrier permeability was impaired in aged 3xTg-AD female mice but reversed with TP-064. […] Formamide extraction of Evan's blue infused-whole-brain was quantified. * p<0.05 compared to C57, #p<0.05 compared to 3xTg-AD, evaluated by one-way ANOVA with Tukey's post-hoc analysis.

In a further assay the target is PRMT4 (Homo sapiens, UniProt Q86X55). To be noted: cited from earlier work.
Chain of PRMT4 (Q86X55 whole entry, species assumed): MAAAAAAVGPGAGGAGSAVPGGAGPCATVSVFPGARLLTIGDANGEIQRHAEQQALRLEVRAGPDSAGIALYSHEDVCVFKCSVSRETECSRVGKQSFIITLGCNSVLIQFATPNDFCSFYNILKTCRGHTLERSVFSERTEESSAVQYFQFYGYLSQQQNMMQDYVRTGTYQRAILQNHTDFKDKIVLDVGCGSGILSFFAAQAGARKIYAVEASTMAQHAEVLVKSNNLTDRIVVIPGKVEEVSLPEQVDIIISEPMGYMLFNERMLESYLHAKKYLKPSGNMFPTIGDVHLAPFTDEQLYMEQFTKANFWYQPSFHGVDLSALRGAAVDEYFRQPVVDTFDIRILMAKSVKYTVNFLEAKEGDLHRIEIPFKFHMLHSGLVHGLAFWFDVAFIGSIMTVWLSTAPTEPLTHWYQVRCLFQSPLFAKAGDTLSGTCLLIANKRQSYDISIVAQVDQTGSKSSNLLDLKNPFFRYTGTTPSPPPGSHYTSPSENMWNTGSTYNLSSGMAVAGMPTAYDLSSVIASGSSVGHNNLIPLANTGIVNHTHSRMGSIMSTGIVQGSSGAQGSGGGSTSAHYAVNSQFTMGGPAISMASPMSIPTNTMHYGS

For `CNCCN1CCC(c2cc(CN(C)C(=O)c3cccc(Oc4ccccc4)c3)ccn2)CC1` [TP-064, N-Methyl-N-((2-(1-(2-(methylamino)ethyl)piperidin-4-yl)pyridin-4-yl)methyl)-3-phenoxybenzamide], the ICAM-1 level result in the assay with ICAM-1 is recorded as “decreased”. The VCAM-1 level result in the assay on VCAM-1 was “decreased”. Also, in assay [1], the “pTau level in cortex” value is 234%±8.33 and the “pTau level in hippocampus” value is on record as 307%±31.4. In the assay on nNOS, the “nNOS level in cortical lysates” value is given as 40.3%±2.88 and the “nNOS level in hippocampal lysates” value is recorded as 133%±8.15. Also, in the assay on iNOS, the “iNOS level in cortical lysates” value is 197%±24.1 and the “iNOS level in hippocampal lysates” value is listed as 157%±17.5. Further, in the assay with aged 3xTg-AD female mice, the “brain penetration of Evan's blue (BBB leakage)” value was “lower brain penetration of Evan's blue”. The “selectivity over other histone methyltransferases and non-epigenetic targets” value at PRMT4 is above 100 fold.
